According to patent publication US20100016262A1, “Compositions and methods for reducing hepatotoxicity associated with drug administration and treating non-alcoholic fatty liver disease, non-alcoholic steatohepatitis and associated cirrhosis” (YALE UNIVERSITY, priority 2007, published 2010):
“Also recorded” adds a separate entry of the source.

What was measured:
[1] = test system: wild-type mice; assay: Acetaminophen (APAP) induced hepatotoxicity in mice (500 mg/kg ip); format: in vivo, mouse
Description: • Animals. C57BL/6 mice were purchased from commercial sources. NALP3 −/−, IL-18 −/− ASC −/−, IPAF −/− and TLR9−/− mice were backcrossed nine generations onto the C57BL/6 background. Caspase 1 −/− mice were backcrossed 5-6 generations onto the C57BL/6 background. These mice have been described previously(39, 40). IL-1β was neutralized in by using the anti-IL-1β antibody from clone B 122 (a gift of R. Schreiber, Washington University) at a dose of 0.2 mg/mouse iv twice a day for a total of 48 hours after giving APAP. Control mice received Armenian hamster isotype control antibody. For survival experiments animals were euthanized when they became moribund using criteria of lack of response to stimuli or lack of righting reflex. Animal protocols were approved by the Yale University animal care and use committee. [include references for IPAF−/− (M. Lara-Tejero et al. JEM 2006) and IL-18−/−. Need to add TLR9−/− and TLR3−/−] • Acetaminophen induced hepatotoxicity. APAP (Sigma, MO) solution was made fresh for each experiment in PBS at 20 mg/ml and heated in a water bath to 55° C. to dissolve. APAP was dosed at 500 mg/kg and injected I.P after 15 hrs of starvation. Animals were euthanized by ketamine/xylazine injection at 12 hours for collection of serum, isolation of liver lymphocytes or collection of liver tissue for histology, or they were observed every four hours for 72 hours until they reached criteria for euthanasia (lack of response to stimuli or lack of righting reflex). • Aspirin/clopidogrel/SC-560. Aspirin (Sigma, MO) was made fresh for each experiment. For dosing prior to APAP it was dissolved in single deionized water at 60 mg/l and heated to 42° C. with rapid stirring to dissolve, then rapidly placed in an ice water bath to cool. Aspirin in water was given to the mice 60-72 hours prior to APAP injection. Assuming water consumption of 3-5 ml per day this dose would be equivalent to a 300-500 mg dose in an 80 kg adult human. For co-administration of APAP and aspirin, aspirin was gavaged at a dose of 6 mg/kg in a volume of 100 ul of water immediately after ip injection of APAP. Clopidogrel (Gilead Pharmaceuticals, CA.) was dissolved in PBS at 6 mg/ml and administered by gavage of 100 ul, 30 mg/kg, every 24 hours beginning 48 hours prior and ending 24 hours after APAP injection. Cox-1 inhibitor (SC-560). SC-560 (Cayman chemical, MI) was dissolved at 50 mg/ml in DMSO and further dissolved in PBS in order to gavage a dose of 5 mg/kg in 100 ul. It was administered twice per day beginning 60 hours prior to Tylenol and continued for 48 hours after APAP injection as previously established(41). • Uric Acid Peritonitis. Peritonitis was induced with uric acid crystals as previously described by injecting 3 mg of MSU intraperitoneally per mouse(27). Three hours after injection peritoneal lavage was performed on mice euthanized by isoflurane inhalation. Neutrophil infiltration was evaluated by flow cytometry. The percent of Gr-1 (BD Pharmingen, CA) positive cells was multiplied by the total cell counts. • Liver sinusoidal endothelial cell (LSEC) isolation. After in-situ pronase digestion the non-parenchymal cell suspension is centrifuged for 5 min at 100 g to remove most of the parenchymal cells. This process is repeated until no pellet is observed. The supernatant enriched in LSEC is centrifuged for 10 min at 350 g. The pellet is resuspended in PBS and centrifuged for 10 min at 350 g. The cells are resuspended in PBS and layered (3.3 ml) on the top of two-step percoll gradient (put the 5 ml of 50% percoll at the bottom and put the 6.6 ml of 25% percoll at the top). The gradients are centrifuged at 900 g for 20 min and the intermediate layer included LSEC is collected and cultured in the media (EGM™-2 MV—Microvascular Endothelial Cell Medium-2, CAMBREX, Charles City, Iowa). • ODN2088 and IRS 954 injection.

[2] = test system: THP1 cells; assay: LPS stimulation of THP1 cells, real-time PCR for pro-IL-1β; format: cell-based, human; details: overnight with aspirin (1.5 mM, 0.15 mM), then LPS 10 μg/ml for 8 hours; P<0.05
[3] = test system: mice and rats; details: aspirin 200-600 mg/kg, dose range toxic to humans; cited from earlier work
[4] = target: T1, NALP3 inflammasome (Mus musculus, UniProt Q8R4B8); assay: Uric acid (MSU crystal) peritonitis, model of NALP3 inflammasome activation; format: in vivo; details: low dose aspirin (60 mg/l) in drinking water for three days before MSU 3 mg/mouse ip; lavage after 3 hours; P<0.0001
T1 construct: endogenous in cells; host or cells: living C57BL/6 wild-type mice (peritoneal cavity, in vivo)
T1 sequence (Q8R4B8 whole entry): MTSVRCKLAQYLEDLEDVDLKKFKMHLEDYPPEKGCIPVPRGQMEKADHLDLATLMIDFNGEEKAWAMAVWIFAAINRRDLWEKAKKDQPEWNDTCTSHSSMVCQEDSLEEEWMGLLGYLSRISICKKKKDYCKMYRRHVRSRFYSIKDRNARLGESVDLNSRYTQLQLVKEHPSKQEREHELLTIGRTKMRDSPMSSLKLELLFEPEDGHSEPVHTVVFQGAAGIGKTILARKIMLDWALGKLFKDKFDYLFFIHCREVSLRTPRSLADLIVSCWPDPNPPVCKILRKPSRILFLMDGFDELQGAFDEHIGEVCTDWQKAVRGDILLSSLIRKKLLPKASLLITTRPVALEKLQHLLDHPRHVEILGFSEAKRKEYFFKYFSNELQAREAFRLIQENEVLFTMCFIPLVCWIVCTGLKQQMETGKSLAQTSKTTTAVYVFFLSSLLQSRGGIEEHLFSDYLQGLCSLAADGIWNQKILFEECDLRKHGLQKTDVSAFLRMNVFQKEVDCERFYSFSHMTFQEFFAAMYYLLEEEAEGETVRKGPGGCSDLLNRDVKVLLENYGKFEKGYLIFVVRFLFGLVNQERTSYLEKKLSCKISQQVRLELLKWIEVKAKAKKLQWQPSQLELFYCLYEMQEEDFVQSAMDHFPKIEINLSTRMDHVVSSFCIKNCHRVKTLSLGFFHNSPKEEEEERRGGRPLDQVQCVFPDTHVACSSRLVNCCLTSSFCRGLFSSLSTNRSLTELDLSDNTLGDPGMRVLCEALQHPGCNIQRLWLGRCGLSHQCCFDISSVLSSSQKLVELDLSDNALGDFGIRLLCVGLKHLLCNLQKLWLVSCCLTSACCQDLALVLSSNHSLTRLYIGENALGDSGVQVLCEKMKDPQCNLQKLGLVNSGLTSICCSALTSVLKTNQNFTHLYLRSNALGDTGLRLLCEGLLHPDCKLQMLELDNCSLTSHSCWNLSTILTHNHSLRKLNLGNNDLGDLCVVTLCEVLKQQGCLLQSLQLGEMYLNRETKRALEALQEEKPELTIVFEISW
Description: • Animals. C57BL/6 mice were purchased from commercial sources. NALP3 −/−, IL-18 −/− ASC −/−, IPAF −/− and TLR9−/− mice were backcrossed nine generations onto the C57BL/6 background. Caspase 1 −/− mice were backcrossed 5-6 generations onto the C57BL/6 background. These mice have been described previously(39, 40). IL-1β was neutralized in by using the anti-IL-1β antibody from clone B 122 (a gift of R. Schreiber, Washington University) at a dose of 0.2 mg/mouse iv twice a day for a total of 48 hours after giving APAP. Control mice received Armenian hamster isotype control antibody. For survival experiments animals were euthanized when they became moribund using criteria of lack of response to stimuli or lack of righting reflex. Animal protocols were approved by the Yale University animal care and use committee. [include references for IPAF−/− (M. Lara-Tejero et al. JEM 2006) and IL-18−/−. Need to add TLR9−/− and TLR3−/−] • Acetaminophen induced hepatotoxicity. APAP (Sigma, MO) solution was made fresh for each experiment in PBS at 20 mg/ml and heated in a water bath to 55° C. to dissolve. APAP was dosed at 500 mg/kg and injected I.P after 15 hrs of starvation. […] Neutrophil infiltration was evaluated by flow cytometry. […]

[5] = aspirin pre-treatment, 12 hours after APAP, p<0.03
[6] = aspirin treatment, after APAP, p<0.005

COc1ccc(-n2nc(C(F)(F)F)cc2-c2ccc(Cl)cc2)cc1 [SC-560]
survival after APAP (protection against APAP toxicity) ([1]; SC-560 5 mg/kg gavage twice daily from 60 hours before to 48 hours after APAP, n=10 vs PBS n=10, P<0.97): did not protect

CC(=O)Oc1ccccc1C(=O)O [aspirin, acetylsalicylic acid]
pro-IL-1β transcript up-regulation by LPS [2]: reduced | liver injury from APAP [3]: reduce liver injury | survival from APAP [3]: not improve survival | serum IL-1β levels (ELISA) ([1]; ASA in drinking water, after APAP, p<0.02): significant reduction | survival after APAP ([1]; aspirin 60 mg/l in drinking water for 3 days before APAP 500 mg/kg ip, n=17 vs control n=13, P<0.02): markedly improved survival | survival ([1]; aspirin given concordantly with APAP, 6 mg/kg by gavage immediately after APAP, control 22% ±19%, P<0.04): 43% ±11% | liver histology (H&E), liver injury and hemorrhage ([1]; aspirin in drinking water for three days before APAP, 12 hours after APAP): markedly improved; also recorded: significant reduction in APAP induced liver injury and hemorrhage | pro-IL-1β message, whole liver (real-time PCR) [1, 5]: reduced to normal levels | pro-IL-18 message, whole liver (real-time PCR) [1, 5]: reduced to normal levels | serum ALT ([1]; aspirin pre-treatment, 12 hrs after APAP, P<0.04): significantly lower | IFN-γ expression, whole liver (real-time PCR) [1, 6]: reduced | TNF-α expression, whole liver (real-time PCR) [1, 6]: reduced | neutrophil exudates (Gr-1 positive neutrophils in peritoneal lavage) [4]: eightfold reduction

COC(=O)[C@H](c1ccccc1Cl)N1CCc2sccc2C1 [clopidogrel]
survival after APAP (protection against APAP toxicity) ([1]; clopidogrel 30 mg/kg gavage every 24 hrs from 48 hours before to 24 hours after APAP, n=15 vs PBS n=15, P<0.31): did not protect
